# Target: bovine serum albumin (BSA) (Bos taurus, UniProt P02769)
# Conditions: BSA 0.02 mM, complex 2 mM, 60° C., pH 9, 24 h incubation; reference without complex = 1.0
# Description: The hydrolysis of protein dirt was investigated using degradation of bovine serum albumin (BSA). […] The incubated material was then examined with the known method of SDS-PAGE with regard to the intensity of the band to be assigned to BSA. BSA incubated under the same conditions without the addition of complexes served as reference. The intensity values given in the following table are relative values based on the intensity of the band of the reference at t=24 h.
# Sequence of bovine serum albumin (BSA) (P02769 25-607): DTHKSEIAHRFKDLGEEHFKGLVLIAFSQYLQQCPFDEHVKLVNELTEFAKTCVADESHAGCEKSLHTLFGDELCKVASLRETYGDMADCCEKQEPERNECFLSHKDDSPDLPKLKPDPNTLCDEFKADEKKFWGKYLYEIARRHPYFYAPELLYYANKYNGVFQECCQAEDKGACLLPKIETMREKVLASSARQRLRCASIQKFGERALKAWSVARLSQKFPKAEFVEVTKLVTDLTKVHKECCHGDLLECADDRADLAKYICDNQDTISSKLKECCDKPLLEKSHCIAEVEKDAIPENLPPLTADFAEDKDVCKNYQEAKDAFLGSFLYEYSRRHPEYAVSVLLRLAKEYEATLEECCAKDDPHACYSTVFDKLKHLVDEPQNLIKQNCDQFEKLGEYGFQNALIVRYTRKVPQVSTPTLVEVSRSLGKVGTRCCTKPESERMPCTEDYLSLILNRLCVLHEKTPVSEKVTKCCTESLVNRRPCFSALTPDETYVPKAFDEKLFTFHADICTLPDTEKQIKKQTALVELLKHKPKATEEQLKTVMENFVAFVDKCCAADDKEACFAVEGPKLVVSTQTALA
substance,measurement,value
"Sc (III) Complex of 1,7-dioxa-4,10-diazacyclododecane-4,10-di(methyl(phenol)) [complex P1]","Intensity (of the SDS-PAGE band assigned to BSA, relative to the reference band at t=24 h)",0.84

# Reference: patent publication US20240327756A1, “METAL COMPLEXES, AND D[…] CONTAINING SAME” (HENKEL AG & CO. KGAA, priority 2021, published 2024)
